Results as given in patent publication US12054485B2, “Substituted imidazoquinolines” (BIONTECH SE, priority 2017, dated 2024).
Like-named read-outs stand apart in the source and are kept apart here.

Assays:
Type in all cases: cell-based
Human PBMCs = test: IFN-α induction by TLR agonists in human PBMCs (Luminex)
Procedure: 1) IFN-α Induction Assay—IFN-α induction by TLR Agonists in Human PBMCs
Abbreviations: BSA=bovine serum albumine; PBS=phosphate buffer pH 7.4; PE=phycoerythrin; EDC=1-ethyl-3-(3-dimethylaminopropyl)carbodiimide hydrochloride.
Materials and Devices: Bio Plex 200 Luminex device, and BioPlex Manager software; MultiScreen Filter Plates (Millipore, MABVN1250); low binding reaction vials 1.5 ml (Sarstedt, 72.706.600); Activation Buffer: 0.1M Na-dihydrogen phosphate, 0.1M Di-Na hydrogen phosphate pH 6.2; Sulfo-NHS (N-hydroxysulfosuccinimide) solution: 50 mg/ml in water (freshly prepared); EDC solution: 50 mg/ml in water (freshly prepared); Coupling Buffer: PBS; Washing Buffer: PBS+0.05% Tween20; Blocking Buffer: PBS+10 mg/ml BSA+0.05% sodium azide; Assay Buffer: PBS+10 mg/ml BSA;
Other materials and devices (pipets, reaction vessels, shaker, etc.) were standard lab equipment; water was MilliQ grade quality, buffers were sterile filtered before use.
(Pre-)Incubation of Cells:
In each well of a 96-well U-bottom plate 200,000 PBMCs were pre-incubated in medium (RPMI1640-Gibco #61870-044+10% FBS+1% L-glutamine) for 5 hours at 37° C. and 5% CO2 before the compounds of the present invention or controls were added, respectively. Upon addition of compounds of the present invention or controls, the cells are incubated for another 24 h at 37° C. and 5% CO2.
Luminex assay, Step 1: Coupling of antibody to beads: • transfer a suspension (beads are stored in buffer as provided by manufacturer) of about 5 million MicroPlex Microspheres (=beads) into a low binding reaction vial • centrifuge bead suspension for 1 min at 10,000 g, discard supernatant and resuspend pellet in 160 μl Activation Buffer, repeat once • add 20 μl Sulfo-NHS solution and 20 μl EDC solution, vortex • incubate for 20 min in the absence of light • centrifuge bead suspension for 1 min at 10,000 g, discard supernatant and resuspend pellet in 500 μl Coupling Buffer, repeat once • add capture antibody (CaptureAK eBioscience #BMS160, 5 μg per 1 Mio beads) • incubate 2 h at RT in the absence of light while swaying • centrifuge bead suspension for 1 min at 10,000 g, discard supernatant and resuspend pellet in 500 μl Washing Buffer, repeat once • centrifuge bead suspension for 1 min at I0,000 g, discard supernatant and resuspend pellet in 100 μl Blocking Buffer
Luminex assay, Step 2: Measurement • add 100 μlAssay Buffer into each filter plate well (seal any unused wells with adhesive tape), then remove buffer • add about 2,000 beads per well per analyte (per analyte, a different bead type with distinct fluorescence color is used), suspended in […] of Assay Buffer • remove buffer and wash twice with 100 μl Washing Buffer per well • per well, add 50 μl sample solution from the (pre-)incubation step (cell supernatant), or Standard (IFN-α standard eBioscience #BMS216MST—concentration gradient, highest standard concentration 2500 pg/ml) or Assay Buffer (as blanks) • shake plate • incubate plate for 2 h at RT in the absence of light, while swaying the plate • wash three times with 100 μl Washing Buffer per well • add 25 μl antibody detection mix (DetectionAK eBioscience #BMS1016BT diluted 1:1000) in Assay Buffer per well, then vortex plate • incubate plate for 1 h at RT in the absence of light, while swaying the plate • wash three times with 100 μl Washing Buffer per well • add 50 μl Streptavidin/PE (diluted 1:200 in Assay Buffer) per well, then vortex plate • incubate plate for 10 min at RT in the absence of light, while swaying the plate • wash three times with 100 μl Washing Buffer per well • add 100 μl Assay Buffer per well, then vortex plate • start Luminex measurement according to manufacturer's instructions, measuring at least 50 beads per well per analyte
The compounds were tested at 8 different concentrations (1 μM, 0.3 μM, 0.1 μM, 0.03 μM, 0.01 μM 0.003 μM, 0.001 μM, 0.0003 μM) using a half-logarithmic dilution. […]

human TLR7 = target: T1, human TLR7 (Homo sapiens, UniProt Q9NYK1); test: TLR7 reporter gene assay (HEK-Blue-hTLR7, NFkB/AP-1 inducible SEAP); conditions: for EC50: HEK-Blue-hTLR7
T1 construct: host or cells: HEK-Blue-hTLR7
T1 sequence (Q9NYK1 27-1049): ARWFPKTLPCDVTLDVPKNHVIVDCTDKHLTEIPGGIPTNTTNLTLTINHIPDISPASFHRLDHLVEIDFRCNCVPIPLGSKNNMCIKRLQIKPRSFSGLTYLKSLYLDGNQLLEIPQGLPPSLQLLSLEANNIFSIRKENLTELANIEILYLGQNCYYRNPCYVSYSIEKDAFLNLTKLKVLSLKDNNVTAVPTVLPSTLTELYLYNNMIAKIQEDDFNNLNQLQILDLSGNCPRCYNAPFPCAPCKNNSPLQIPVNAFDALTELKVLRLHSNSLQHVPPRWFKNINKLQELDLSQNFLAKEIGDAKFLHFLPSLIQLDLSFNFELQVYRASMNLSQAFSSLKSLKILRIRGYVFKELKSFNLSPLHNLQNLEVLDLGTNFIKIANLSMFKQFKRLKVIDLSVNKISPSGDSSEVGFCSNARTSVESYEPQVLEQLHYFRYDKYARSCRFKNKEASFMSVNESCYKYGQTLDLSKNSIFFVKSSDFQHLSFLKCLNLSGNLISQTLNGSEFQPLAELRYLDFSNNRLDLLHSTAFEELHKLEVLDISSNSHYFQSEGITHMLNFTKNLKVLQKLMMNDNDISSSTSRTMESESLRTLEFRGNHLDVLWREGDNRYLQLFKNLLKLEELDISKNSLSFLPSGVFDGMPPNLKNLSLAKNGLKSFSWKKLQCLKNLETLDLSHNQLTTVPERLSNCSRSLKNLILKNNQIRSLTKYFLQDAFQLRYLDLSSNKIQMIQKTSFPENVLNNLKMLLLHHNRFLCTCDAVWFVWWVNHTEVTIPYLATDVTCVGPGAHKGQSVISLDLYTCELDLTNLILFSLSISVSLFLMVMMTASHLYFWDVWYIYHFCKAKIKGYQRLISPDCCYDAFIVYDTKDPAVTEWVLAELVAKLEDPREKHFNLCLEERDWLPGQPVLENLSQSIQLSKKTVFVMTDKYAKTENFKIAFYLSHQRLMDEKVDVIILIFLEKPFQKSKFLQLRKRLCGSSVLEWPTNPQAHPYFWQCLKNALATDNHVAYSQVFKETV
Procedure: (§1) 2) TLR Stimulation Assay:
(§2) Compounds are tested for stimulation of human TLR7 and TLR8, respectively, via reporter gene expression analyzed in a cell line stably transfected with human TLR7 and TLR8, respectively, and coexpressing an NFkB/AP-1 inducible SEAP reporter gene. Stimulation with a TLR ligand leads to NFkB/AP-1 activation and upregulation and secretion of SEAP, which can be measured in the supernatant with QuantiBlue™ detection system (InvivoGen).
Cell lines used were either HEK-Blue-hTLR7 (InvivoGen #hkb-htlr7) or HEK-Blue-hTLR8 (InvivoGen #hkb-htlr8). Cells were cultured following manufacturer's instructions.
Assay: • prepare cell suspensions of each cell line with Nv=0.11×10^6 cells/ml in medium (DMEM 4.5 g/l Glucose, 2-4 mM L-glutamine+10% FBS) without antibiotics (Nv=number of living cells) • add 180 μl of the suspensions per well of a 96 well flat bottom cell culture plates (coster, #3506) • incubate the plates overnight at 37° C. and 5% CO2 • prepare samples and controls as solutions in DMSO: R848, CL075 (TLR 7/8 agonist by InvivoGen) and Guardiquimod each to a final concentration of 10 μM, ODN2006 (InvivoGen) and ODN2216 (InvivoGen) each to a final concentration 2 μM; • compounds of the invention are applied in dilution series to final concentrations of 30, 10, 3, 1, etc. μM • add 20 μl diluted compounds and controls (see above) to the wells • incubate plates for 20-24 h at 37° C. and 5% CO2 • prepare QuantiBlue™ (InvivoGen #10H19-MM) solution, following manufacturer's instructions: solubilize the powder of one pouch in 100 ml MilliQ grade water, heat at 37° C. in a water bath for about 30 min, filter the solution with a paper filter • add 100 μl prepared QuantiBlue™ solution in each well of a 96 well plate with flat bottom • add […] cell culture supernatant from the induced cells per well • incubate plates for 1 to 1.5 h at 37° C. (until an intense blue color has developed) • read OD at 620 nm with a plate reader • calculate EC50 from data points

human TLR8 = target: T2, human TLR8 (Homo sapiens, UniProt Q9NR97); test: TLR8 reporter gene assay (HEK-Blue-hTLR8, NFkB/AP-1 inducible SEAP)
T2 construct: host or cells: HEK-Blue-hTLR8
T2 sequence (Q9NR97 27-1041): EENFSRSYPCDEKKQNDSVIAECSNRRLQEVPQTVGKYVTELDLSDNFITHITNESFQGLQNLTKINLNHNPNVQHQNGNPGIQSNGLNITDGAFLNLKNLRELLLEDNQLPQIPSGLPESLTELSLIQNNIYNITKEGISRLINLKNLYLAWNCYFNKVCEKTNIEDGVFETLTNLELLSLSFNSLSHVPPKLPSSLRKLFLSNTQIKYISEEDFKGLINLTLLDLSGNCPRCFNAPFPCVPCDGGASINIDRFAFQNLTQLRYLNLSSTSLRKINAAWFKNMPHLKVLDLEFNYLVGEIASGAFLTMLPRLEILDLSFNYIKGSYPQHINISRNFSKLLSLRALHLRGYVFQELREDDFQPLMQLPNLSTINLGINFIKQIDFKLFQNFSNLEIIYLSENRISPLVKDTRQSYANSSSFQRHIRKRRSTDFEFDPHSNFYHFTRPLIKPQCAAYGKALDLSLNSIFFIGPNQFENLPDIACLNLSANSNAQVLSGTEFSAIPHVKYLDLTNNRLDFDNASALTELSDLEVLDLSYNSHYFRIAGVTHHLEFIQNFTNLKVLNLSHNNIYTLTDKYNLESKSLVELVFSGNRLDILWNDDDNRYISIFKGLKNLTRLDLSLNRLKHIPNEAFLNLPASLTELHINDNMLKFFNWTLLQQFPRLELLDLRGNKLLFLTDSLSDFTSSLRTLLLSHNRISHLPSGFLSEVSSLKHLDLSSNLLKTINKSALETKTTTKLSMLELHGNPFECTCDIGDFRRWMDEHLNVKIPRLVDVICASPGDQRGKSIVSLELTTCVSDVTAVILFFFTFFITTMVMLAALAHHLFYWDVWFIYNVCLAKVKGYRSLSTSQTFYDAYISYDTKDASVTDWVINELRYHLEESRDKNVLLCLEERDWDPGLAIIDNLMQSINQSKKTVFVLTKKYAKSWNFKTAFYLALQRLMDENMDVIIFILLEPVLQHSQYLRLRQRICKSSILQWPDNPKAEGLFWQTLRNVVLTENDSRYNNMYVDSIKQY
Procedure: as §1, §2
Cell lines used were either HEK-Blue-hTLR7 (InvivoGen #hkb-htlr7) or HEK-Blue-hTLR8 (InvivoGen #hkb-htlr8). Cells were cultured following manufacturer's instructions. […]

[1] = 24 h incubation, maximum of bell-shaped curve over 0.0003-1 μM, Table 1
[2] = comparative compounds with 2-methyltetrahydrofuran-3-yl at R3, Table 2

| Structure (SMILES) | Maximum IFN-α release (Human PBMCs; [1]) | Maximum IFN-α release (Human PBMCs; [2]) | also measured |
| --- | --- | --- | --- |
| CCNCc1nc2c(N)nc3ccccc3c2n1CCCCN(C(C)=O)C1CCOCC1 [Example 3, N-(4-(4-Amino-2-((ethylamino)methyl)-1H-imidazo[4,5-c]quinolin-1-yl)butyl)-N-(tetrahydro-2H-pyran-4-yl)acetamide] | 1070 pg/mL | – | – |
| CCc1nc2c(N)nc3ccccc3c2n1CCCCN(C(C)=O)C1CCOC1C (centres unmarked) [1′] | – | 930 pg/mL | – |
| COCCc1nc2c(N)nc3ccccc3c2n1CCCCN(C(C)=O)C1CCOC1C (centres unmarked) [5′] | – | 330 pg/mL | – |
| CCNCc1nc2c(N)nc3ccccc3c2n1CCCCN(C(N)=O)C1CCOCC1 [Example 4, 1-(4-(4-Amino-2-((ethylamino)methyl)-1H-imidazo[4,5-c]quinolin-1-yl)butyl)-1-(tetrahydro-2H-pyran-4-yl)urea] | 920 pg/mL | – | – |
| CCc1nc2c(N)nc3ccccc3c2n1CCCCNC1CCOCC1 [example V, 2-ethyl-1-(4-((tetrahydro-2H-pyran-4-yl)amino)butyl)-1H-imidazo[4,5-c]quinolin-4-amine] | – | – | EC50 (human TLR7; highest concentration without any activity, read-out: activity towards TLR7 (no activity up to a concentration of)): > 30000 nM; activity towards TLR8 in the TLR8 reporter gene assay (human TLR8): displayed activity |
| CCc1nc2c(N)nc3ccccc3c2n1CCCCN(C(N)=O)C1CCOCC1 [Example 2, 1-(4-(4-Amino-2-ethyl-1H-imidazo[4,5-c]quinolin-1-yl)butyl)-1-(tetrabydro-2H-pyran-4-yl)urea] | 1250 pg/mL | – | – |
| COCCc1nc2c(N)nc3ccccc3c2n1CCCCN(C(N)=O)C1CCOCC1 [Example 6, 1-(4-(4-Amino-2-(2-methoxyethyl)-1H-imidazo[4,5-c]quinolin-1-yl)butyl)-1-(tetrahydro-2H-pyran-4-yl)urea] | 1850 pg/mL | – | – |
| CCNCc1nc2c(N)nc3ccccc3c2n1CCCCN(C(N)=O)C1CCOC1C (centres unmarked) [4′] | – | 290 pg/mL | – |
| CCc1nc2c(N)nc3ccccc3c2n1CCCCN(C(C)=O)C1CCOC1C (centres unmarked) [example III, 3-{acetyl[4-(4-amino-2-ethyl-1H-imidazo[4,5-c]quinolin-1-yl)butyl]amino}-2,5-anhydro-1,3,4-trideoxypentitol] | – | – | maximum IFN-α release relative to present Example 1 (Human PBMCs; % of the maximum IFN-α release of Example 1): about 50%; EC50 (human TLR7; read-out: EC50 in the TLR7 reporter gene assay): 440 nM; EC50 in TLR7 reporter gene assay relative to Example 1 (human TLR7; fold higher EC50 than Example 1): ten-fold higher |
| CCNCc1nc2c(N)nc3ccccc3c2n1CCCCN(C(C)=O)C1CCOC1C (centres unmarked) [3′] | – | 360 pg/mL | – |
| COCCc1nc2c(N)nc3ccccc3c2n1CCCCN(C(C)=O)C1CCOCC1 [Example 5, N-(4-(4-Amino-2-(2-methoxyethyl)-1H-imidazo[4,5-c]quinolin-1-yl)butyl)-N-(tetrahydro-2H-pyran-4-yl)acetamide] | 880 pg/mL | – | – |
